Values quoted from earlier work, collected in publication PMC3714282, “Pharmacometabolomics of Response to Sertraline and to Placebo in Major Depressive Disorder – Possible Role for Methoxyindole Pathway” (PLoS ONE, 2013).

System: arylalkylamine N-acetyltransferase (AANAT) mRNA
Set-up: method as in PMID 9951564
Details: animal studies, chronic administration; cited from earlier work

Structure (SMILES): CNCCC(Oc1ccc(C(F)(F)F)cc1)c1ccccc1 (stereo not shown) [fluoxetine]
- brain arylalkylamine N-acetyltransferase (AANAT) mRNA: several-fold increase
